Reference: patent US20240336572A1, “SUBSTITUTED INDAZOLE PROPIONIC ACID DERIVATIVE COMPOUNDS AND USES THEREOF” (Pfizer Inc., priority 2023, published 2024)

How the values were obtained:
AMPK 221 = target: T1, AMPK 221 (Homo sapiens, UniProt O43741+P54646); assay: Biochemical profiling of AMPK activators by AMPK221 (HTRF/TR-FRET assay, SAMS peptide, PP2A dephosphorylation protection); conditions: for EC50: phosphorylated AMPK 221 (α2β2δ1), 11 point dilution, duplicate, 4-parameter fit; for Emax: phosphorylated AMPK 221, maximal activation
T1 construct: open reading frames encoding the full-length α2, β2 and δ1 subunits of human AMPK; made in house; host or cells: E. coli BL21-CodonPlus (DE3)-RIPL, pET-14b
T1 sequence (P54646 whole entry): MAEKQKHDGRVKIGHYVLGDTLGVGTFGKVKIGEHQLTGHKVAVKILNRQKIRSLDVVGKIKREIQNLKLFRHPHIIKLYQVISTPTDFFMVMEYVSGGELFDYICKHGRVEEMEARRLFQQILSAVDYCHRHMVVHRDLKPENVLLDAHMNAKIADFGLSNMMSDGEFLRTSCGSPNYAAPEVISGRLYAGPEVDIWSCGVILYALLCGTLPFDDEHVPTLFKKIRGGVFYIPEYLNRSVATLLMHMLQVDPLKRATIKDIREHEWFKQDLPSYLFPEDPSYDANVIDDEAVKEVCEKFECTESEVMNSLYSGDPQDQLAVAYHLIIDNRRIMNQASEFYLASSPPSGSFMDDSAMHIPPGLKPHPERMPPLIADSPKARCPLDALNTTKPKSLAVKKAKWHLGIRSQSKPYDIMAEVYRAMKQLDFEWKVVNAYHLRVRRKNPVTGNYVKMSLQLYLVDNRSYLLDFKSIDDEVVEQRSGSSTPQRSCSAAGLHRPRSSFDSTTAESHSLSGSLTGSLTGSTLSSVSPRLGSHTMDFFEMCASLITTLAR
T1 sequence (O43741 whole entry): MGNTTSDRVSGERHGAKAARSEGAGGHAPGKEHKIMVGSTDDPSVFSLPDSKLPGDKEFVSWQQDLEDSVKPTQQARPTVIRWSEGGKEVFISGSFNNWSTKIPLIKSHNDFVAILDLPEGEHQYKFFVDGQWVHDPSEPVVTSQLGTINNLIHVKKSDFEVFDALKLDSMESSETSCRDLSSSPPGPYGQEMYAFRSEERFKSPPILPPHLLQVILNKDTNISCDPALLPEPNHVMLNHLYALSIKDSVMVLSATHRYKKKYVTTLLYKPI
T1 sequence (P54619 whole entry partner): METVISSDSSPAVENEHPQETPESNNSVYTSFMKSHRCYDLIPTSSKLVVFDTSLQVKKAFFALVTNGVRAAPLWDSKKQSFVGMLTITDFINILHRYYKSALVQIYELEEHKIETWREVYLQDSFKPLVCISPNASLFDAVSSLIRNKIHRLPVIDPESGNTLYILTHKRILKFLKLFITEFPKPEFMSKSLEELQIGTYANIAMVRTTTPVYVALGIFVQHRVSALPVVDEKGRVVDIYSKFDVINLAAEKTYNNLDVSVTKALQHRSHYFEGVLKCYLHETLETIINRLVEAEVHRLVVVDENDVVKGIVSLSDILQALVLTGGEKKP
Method: (§1) The biochemical EC50 (half-maximal concentration required for full activation) of compounds for the activation of AMPK was evaluated by HTRF assay using LANCE Ultra ULight-Acetyl-CoA Carboxylase (SAMS) peptide (commercially available, Perkin Elmer catalog TRF0133-M).
The reaction was terminated after 60 minutes incubation at room temperature by the addition of 5 μL of stop and detection cocktail, which consisted of 1× Perkin Elmer Lance buffer (Perkin Elmer catalog number CR97-100), 40 mM EDTA (Thermo Fisher catalog number BP2482-100), and 2 nM Eu-anti-Acetyl CoA Carboxylase [pSer70] antibody (Perkin Elmer, TRF0208-M). Plates were spun at 1000 RPM, 10 seconds.

AMPK 111 = target: T2, AMPK 111 (Homo sapiens, UniProt Q13131+Q9Y478); assay: Biochemical profiling of AMPK activators by AMPK111 (HTRF/TR-FRET assay, SAMS peptide, PP2A dephosphorylation protection); conditions: for EC50: phosphorylated AMPK 111 (α1β1δ1 as printed), 11 point dilution, duplicate, 4-parameter fit; for Emax: phosphorylated AMPK 111, maximal activation
T2 construct: open reading frames encoding the full-length α1, β1 and δ1 subunits of human AMPK; made in house; host or cells: E. coli BL21-CodonPlus (DE3)-RIPL, pET-14b
T2 sequence (Q13131 whole entry): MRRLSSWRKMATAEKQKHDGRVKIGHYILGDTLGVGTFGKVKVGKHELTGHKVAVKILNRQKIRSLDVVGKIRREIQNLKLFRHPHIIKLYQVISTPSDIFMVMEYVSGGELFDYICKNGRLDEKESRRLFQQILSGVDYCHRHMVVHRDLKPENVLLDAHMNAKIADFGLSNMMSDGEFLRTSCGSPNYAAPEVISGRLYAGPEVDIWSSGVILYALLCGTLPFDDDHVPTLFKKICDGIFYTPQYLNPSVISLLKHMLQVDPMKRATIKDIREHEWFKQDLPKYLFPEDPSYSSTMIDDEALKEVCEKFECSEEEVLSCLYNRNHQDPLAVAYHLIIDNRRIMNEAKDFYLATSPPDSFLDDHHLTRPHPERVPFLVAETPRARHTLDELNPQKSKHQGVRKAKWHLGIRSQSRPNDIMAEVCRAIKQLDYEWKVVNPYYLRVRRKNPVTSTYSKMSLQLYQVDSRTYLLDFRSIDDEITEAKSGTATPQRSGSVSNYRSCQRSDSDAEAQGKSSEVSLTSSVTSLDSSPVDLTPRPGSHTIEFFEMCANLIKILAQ
T2 sequence (Q9Y478 whole entry): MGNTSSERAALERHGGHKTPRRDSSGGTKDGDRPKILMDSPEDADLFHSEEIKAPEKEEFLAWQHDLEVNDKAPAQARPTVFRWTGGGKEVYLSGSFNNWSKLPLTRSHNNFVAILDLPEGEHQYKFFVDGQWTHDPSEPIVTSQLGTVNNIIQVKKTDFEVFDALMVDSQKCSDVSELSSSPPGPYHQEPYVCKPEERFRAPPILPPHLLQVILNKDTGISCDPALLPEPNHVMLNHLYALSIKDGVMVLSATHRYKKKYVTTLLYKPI
T2 sequence (P54619 whole entry partner): as the sequence (P54619 whole entry partner) above
Method: as §1
Following a fifteen-minute room temperature incubation, 5 μL of 30 nM protein phosphatase PP2A (isolation detailed above) diluted in the assay buffer was added to the plate, to dephosphorylate pThr172 of AMPK. […] The reaction was terminated after 60 minutes incubation at room temperature, by the addition of 5 μL of stop and detection cocktail, which consisted of 1× Perkin Elmer Lance buffer (Perkin Elmer catalog number CR97-100), 40 mM EDTA (Thermo Fisher catalog number BP2482-100), and 2 nM Eu-anti-Acetyl CoA Carboxylase [pSer70] antibody (Perkin Elmer, TRF0208-M).

EC50 (AMPK 221) | EC50 (AMPK 111) | Emax (AMPK 221) | Emax (AMPK 111) | Compound
> 21100 nM | > 21100 nM | – | – | O=C(O)CCc1n[nH]c2cc(Cl)c(-c3ccc(-c4ccccc4OC4OC(C(=O)O)C(O)C(O)C4O)cc3)cc12 (centres unmarked) [Example 80, 6-((4′-(3-(2-carboxyethyl)-6-chloro-1H-indazol-5-yl)-[1,1′-biphenyl]-2-yl)oxy)-3,4,5-trihydroxytetrahydro-2H-pyran-2-carboxylic acid]
82 nM | 70 nM | 58% | 66% | O=C(O)CCc1n[nH]c2cc(Cl)c(-c3ccc(-c4ccc(C(=O)NCCCO)cc4)cc3)cc12 [Example 77, 3-(6-chloro-5-(4′-((3-hydroxypropyl)carbamoyl)-[1,1′-biphenyl]-4-yl)-1H-indazol-3-yl)propanoic acid]
953 nM | 69 nM | 63% | 85% | O=C(O)CCc1n[nH]c2cc(Cl)c(-c3ccc(-c4c(Cl)ccc(F)c4O)cc3)cc12 [Example 67, 3-(6-chloro-5-(6′-chloro-3′-fluoro-2′-hydroxy-[1,1′-biphenyl]-4-yl)-1H-indazol-3-yl)propanoic acid]
229 nM | 74 nM | 63% | 75% | Cc1cccc(O)c1-c1ccc(-c2cc3c(CCCC(=O)O)n[nH]c3cc2Cl)cc1 [Example 75, 4-(6-chloro-5-(2′-hydroxy-6′-methyl-[1,1′-biphenyl]-4-yl)-1H-indazol-3-yl)butanoic acid]
29 nM | 39 nM | 27% | 67% | O=C(CCc1n[nH]c2cc(Cl)c(-c3ccc(-c4ccccc4O)cc3)cc12)OC1OC(C(=O)O)C(O)C(O)C1O (centres unmarked) [Example 79, 6-((3-(6-chloro-5-(2′-hydroxy-[1,1′-biphenyl]-4-yl)-1H-indazol-3-yl)propanoyl)oxy)-3,4,5-trihydroxytetrahydro-2H-pyran-2-carboxylic acid]
1010 nM | 217 nM | 64% | 61% | O=C(O)CCc1n[nH]c2cc(Cl)c(-c3ccc(-c4ccc5c(c4)CS(=O)(=O)C5)cc3)cc12 [Example 54, 3-(6-chloro-5-(4-(2,2-dioxido-1,3-dihydrobenzo[c]thiophen-5-yl)phenyl)-1H-indazol-3-yl)propanoic acid]
644 nM | 218 nM | 55% | 69% | Cn1c(O)nc2cc(-c3ccc(-c4cc5c(CCC(=O)O)n[nH]c5cc4Cl)cc3)ccc21 [Example 53, 3-(6-chloro-5-(4-(2-hydroxy-1-methyl-1H-benzo[d]imidazol-5-yl)phenyl)-1H-indazol-3-yl)propanoic acid]
66 nM | 92 nM | 69% | 80% | COc1cccc(-c2ccc(-c3cc4c(CCCC(=O)O)n[nH]c4cc3Cl)cc2)c1O [Example 74, 4-(6-chloro-5-(2′-hydroxy-3′-methoxy-[1,1′-biphenyl]-4-yl)-1H-indazol-3-yl)butanoic acid]
546 nM | 609 nM | 13% | 30% | COc1nc(-c2ccc(-c3cc4c(CCC(=O)O)n[nH]c4cc3Cl)cc2)cs1 [Example 59, 3-(6-chloro-5-(4-(2-methoxythiazol-4-yl)phenyl)-1H-indazol-3-yl)propanoic acid]
1090 nM | 285 nM | 49% | 74% | O=C(O)CCc1n[nH]c2cc(Cl)c(-c3ccc(-c4cc(F)ccc4O)cc3)cc12 [Example 70, 3-(6-chloro-5-(5′-fluoro-2′-hydroxy-[1,1′-biphenyl]-4-yl)-1H-indazol-3-yl)propanoic acid]
477 nM | 363 nM | 18% | 48% | Cc1ccc(-c2ccc(-c3cc4c(CCC(=O)O)n[nH]c4cc3Cl)cc2)s1 [Example 56, 3-(6-chloro-5-(4-(5-methylthiophen-2-yl)phenyl)-1H-indazol-3-yl)propanoic acid]

Further lines, the molecule ahead of its results:

Compound | EC50 (AMPK 221) | EC50 (AMPK 111) | Emax (AMPK 221) | Emax (AMPK 111)
Cc1ccccc1-c1ccc(-c2cc3c(CCC(=O)O)n[nH]c3cc2Cl)cc1 [Example 48, 3-(6-chloro-5-(2′-methyl-[1,1′-biphenyl]-4-yl)-1H-indazol-3-yl)propanoic acid] | 367 nM | 365 nM | 9% | 43%
COc1ccc(Cl)c(-c2ccc(-c3cc4c(CCC(=O)O)n[nH]c4cc3Cl)cc2)c1O [Example 14, 3-(6-chloro-5-(6′-chloro-2′-hydroxy-3′-methoxy-[1,1′-biphenyl]-4-yl)-1H-indazol-3-yl)propanoic acid] | 72 nM | 45 nM | 65% | 74%
O=C(O)CNc1n[nH]c2cc(Cl)c(-c3ccc(-c4ccccc4O)cc3)cc12 [Example 19, (6-Chloro-5-(2′-hydroxy-[1,1′-biphenyl]-4-yl)-1H-indazol-3-yl)glycine] | 144 nM | 54 nM | 34% | 79%
Cc1ccc(-c2ccc(-c3cc4c(CCC(=O)O)n[nH]c4cc3Cl)cc2)c(O)c1 [Example 34, 3-(6-chloro-5-(2′-hydroxy-4′-methyl-[1,1′-biphenyl]-4-yl)-1H-indazol-3-yl)propanoic acid] | 197 nM | 228 nM | 50% | 68%
CC(=O)NCc1ccc(-c2ccc(-c3cc4c(CCC(=O)O)n[nH]c4cc3Cl)cc2)cc1 [Example 41, 3-(5-(4′-(acetamidomethyl)-[1,1′-biphenyl]-4-yl)-6-chloro-1H-indazol-3-yl)propanoic acid] | 235 nM | 70 nM | 65% | 66%
O=C(O)CCc1n[nH]c2cc(Cl)c(-c3ccc(-c4ccc(F)cc4O)cc3)cc12 [Example 47, 3-(6-chloro-5-(4′-fluoro-2′-hydroxy-[1,1′-biphenyl]-4-yl)-1H-indazol-3-yl)propanoic acid] | 282 nM | 113 nM | 59% | 83%
O=C(O)CSc1n[nH]c2cc(Cl)c(-c3ccc(-c4ccccc4O)cc3)cc12 [Example 11, 2-((6-chloro-5-(2′-hydroxy-[1,1′-biphenyl]-4-yl)-1H-indazol-3-yl)thio)acetic acid] | 60 nM | 53 nM | 44% | 62%
NCc1ccc(-c2ccc(-c3cc4c(CCC(=O)O)n[nH]c4cc3Cl)cc2)c(O)c1 [Example 8, 3-(5-(4′-(Aminomethyl)-2′-hydroxy-[1,1′-biphenyl]-4-yl)-6-chloro-1H-indazol-3-yl)propanoic acid] | 38 nM | 26 nM | 56% | 75%
CC(=O)N(C)c1ccc(-c2ccc(-c3cc4c(CCC(=O)O)n[nH]c4cc3Cl)cc2)cc1 [Example 39, 3-(6-chloro-5-(4′-(N-methylacetamido)-[1,1′-biphenyl]-4-yl)-1H-indazol-3-yl)propanoic acid] | 218 nM | 109 nM | 59% | 69%
CS(=N)(=O)c1ccc(-c2ccc(-c3cc4c(CCC(=O)O)n[nH]c4cc3Cl)cc2)cc1 (centres unmarked) [Example 24, 3-(6-chloro-5-(4′-(S-methylsulfonimidoyl)-[1,1′-biphenyl]-4-yl)-1H-indazol-3-yl)propanoic acid] | 106 nM | 19 nM | 48% | 86%
NC(=O)Cc1ccc(-c2ccc(-c3cc4c(CCC(=O)O)n[nH]c4cc3Cl)cc2)cc1 [Example 30, 3-(5-(4′-(2-amino-2-oxoethyl)-[1,1′-biphenyl]-4-yl)-6-chloro-1H-indazol-3-yl)propanoic acid] | 173 nM | 36 nM | 65% | 80%
O=C(O)CCc1n[nH]c2cc(Cl)c(-c3ccc(-c4c(O)cccc4Cl)cc3)cc12 [Example 46, 3-(6-chloro-5-(2′-chloro-6′-hydroxy-[1,1′-biphenyl]-4-yl)-1H-indazol-3-yl)propanoic acid] | 267 nM | 20 nM | 59% | 82%
CN(C)C(=O)c1ccc(-c2ccc(-c3cc4c(CCC(=O)O)n[nH]c4cc3Cl)cc2)c(O)c1 [Example 12, 3-(6-chloro-5-(4′-(dimethylcarbamoyl)-2′-hydroxy-[1,1′-biphenyl]-4-yl)-1H-indazol-3-yl)propanoic acid] | 62 nM | 16 nM | 56% | 72%
COc1c(F)ccc(-c2ccc(-c3cc4c(CCC(=O)O)n[nH]c4cc3Cl)cc2)c1O [Example 16, 3-(6-chloro-5-(4′-fluoro-2′-hydroxy-3′-methoxy-[1,1′-biphenyl]-4-yl)-1H-indazol-3-yl)propanoic acid] | 81 nM | 37 nM | 64% | 86%
